# Data as given in ChEMBL document CHEMBL2176926, “Crystal structure of human aurora B in complex with INCENP and VX-680” (J Med Chem, 2012).
# Tests used:
# Aurora kinase B-A = Aurora kinase B-A (Xenopus laevis, UniProt Q6DE08); experiment: Inhibition of Xenopus laevis Aurora kinase B/INCEP complex using gamma-[32P]ATP incubated for 1 hr by autoradiography
# Aurora kinase B = Aurora kinase B (Homo sapiens, UniProt Q96GD4); experiment: Inhibition of human Aurora kinase B/INCEP complex expressed in Escherichia coli BL21 (DE3) using gamma-[32P]ATP incubated for 1 hr by autoradiography
# Sequence of Aurora kinase B (Q96GD4 whole entry): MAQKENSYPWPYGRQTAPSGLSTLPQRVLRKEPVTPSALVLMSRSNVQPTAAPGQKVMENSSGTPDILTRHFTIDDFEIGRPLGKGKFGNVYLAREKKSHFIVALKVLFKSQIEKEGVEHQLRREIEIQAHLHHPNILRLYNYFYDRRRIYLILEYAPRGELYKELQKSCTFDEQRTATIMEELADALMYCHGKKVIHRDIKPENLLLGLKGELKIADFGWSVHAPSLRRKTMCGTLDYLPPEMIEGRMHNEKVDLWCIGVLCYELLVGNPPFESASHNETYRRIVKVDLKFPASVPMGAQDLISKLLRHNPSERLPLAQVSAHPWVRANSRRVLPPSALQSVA
# Aurora kinase A = target: T1, Aurora kinase A (Homo sapiens, UniProt O14965)
# T1 sequence (O14965 whole entry): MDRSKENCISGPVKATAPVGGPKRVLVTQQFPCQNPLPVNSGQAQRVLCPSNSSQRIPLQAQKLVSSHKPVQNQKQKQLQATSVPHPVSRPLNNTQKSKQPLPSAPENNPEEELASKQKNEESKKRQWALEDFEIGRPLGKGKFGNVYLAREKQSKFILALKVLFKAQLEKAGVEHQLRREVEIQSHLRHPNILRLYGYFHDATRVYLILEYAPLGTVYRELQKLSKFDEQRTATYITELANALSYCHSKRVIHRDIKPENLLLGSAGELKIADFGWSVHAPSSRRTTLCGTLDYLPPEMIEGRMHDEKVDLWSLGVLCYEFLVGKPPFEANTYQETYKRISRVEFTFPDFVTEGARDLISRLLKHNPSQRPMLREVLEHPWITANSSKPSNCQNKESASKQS
# Description: Inhibition of human Aurora kinase A/TPX2 complex using gamma-[32P]ATP incubated for 1 hr by autoradiography
# Sequence of Aurora kinase B-A (Q6DE08 whole entry): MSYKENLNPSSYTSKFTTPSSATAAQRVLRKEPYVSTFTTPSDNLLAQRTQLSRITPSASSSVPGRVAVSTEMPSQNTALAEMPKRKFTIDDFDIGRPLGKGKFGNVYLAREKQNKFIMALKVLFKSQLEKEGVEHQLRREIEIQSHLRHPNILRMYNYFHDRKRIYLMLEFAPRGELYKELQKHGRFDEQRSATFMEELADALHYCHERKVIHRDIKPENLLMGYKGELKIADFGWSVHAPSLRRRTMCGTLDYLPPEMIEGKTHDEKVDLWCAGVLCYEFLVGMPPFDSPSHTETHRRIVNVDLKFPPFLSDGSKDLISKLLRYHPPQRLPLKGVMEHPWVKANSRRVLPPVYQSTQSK
SMILES,IC50 (Aurora kinase B-A) [µM],IC50 (Aurora kinase B) [µM],IC50 (Aurora kinase A) [µM]
COc1cc2c(Nc3ccc(NC(=O)c4ccccc4)cc3)ncnc2cc1OCCCN1CCOCC1,0.045,,
CCS(=O)(=O)Nc1ccc2c(c1)/C(=C(/Nc1ccc(CN3CCCCC3)cc1)c1ccccc1)C(=O)N2 [HESPERADIN],0.003,0.003,0.011
Cc1cc(Nc2cc(N3CCN(C)CC3)nc(Sc3ccc(NC(=O)C4CC4)cc3)n2)[nH]n1 [TOZASERTIB],0.019,,
